Measured values reported in US8735602B2, “Pharmaceutically acceptable salts of thymodepressin and processes for their manufacture” (Apotex Technologies inc., priority 2006, dated 2014).

Columns and labels:
Format in all cases: physicochemical
[1] = Speciation plot (FIG. 5) calculation of solution pH from experimentally determined pKas; details: according to the speciation plot calculation
Source text: A pharmaceutically acceptable salt of a drug substance is one that is chemically stable and can be used in a pharmaceutical composition. Unlike simple aromatic hydrocarbons, thymodepressin is a dipeptide with multi-functional groups. The dipeptide D-isoglutamyl-D-tryptophan has an alpha amine, two carboxylic acids and an indole nitrogen within the same molecule. An ideal salt should be one that has a solution pH close to about 7 and in the low basic pH range. Through investigations in our laboratory, in the search for a novel salt to address the shortcomings of the disodium salt of D-isoglutamyl-D-tryptophan, the speciation plot (FIG. 5) was used to determine salts with ideal solution pH and solubility that are suitable for pharmaceutical formulations. FIG. 5 is a speciation plot of H-D-iGlu-D-Trp-OH from pH 0 to 12 using experimentally determined pKas. In FIG. 5, LH2=H-D-iGlu-D-Trp-OH, LH=mono carboxylic acid salt, L=dicarboxylic acid salt, and LH3=acid addition salt of H-D-iGlu-D-Trp-OH. The X axis provides the pH of the solution, whereas the Y axis reports the amount of the species present at a particular pH. From our practical experience, we use 6 ml of water per gm of H-D-iGlu-D-Trp-OH for isolation purposes, which corresponds to a concentration of 0.5 M solution.
According to the speciation plot calculation shown in FIG. 5, the diacid form has a pH of about 2.7 to about 3 in solution. The metal salt of formula I wherein M is potassium or lithium; the divalent salt of formula II wherein B is calcium or magnesium has a solution pH close to about 7.
We have applied the speciation plot (FIG. 5) to compute the pH range of the salt forms of the dipeptide H-D-iGlu-D-Trp-OH. […] This is particular ideal for liquid formulation, sublingual tablets, nasal drops and sprays.

[2] = Percent crystallinity by X-ray powder diffraction; details: XRPD, D8 system with 2D detector; not absolute values
Method: The percent crystallinity is commonly measured as a ratio between the diffraction portion from the crystalline part of the sample, Ic, and the total diffraction from the same sample, IC+B. The values of IC can be obtained after an appropriate subtraction of the scattering portion from the background, IB.
For such kind of analyses, the diffraction is measured as total area under the profile of: • the whole pattern as it is collected (one may correct for the air scattering) −ITOTAL* • the peaks only (IC) after subtraction of the background (correction for the air scattering), • the background only with correction for air scattering −(IB).
However, in this study, due to the technical problems with the D5000 point-detector diffraction system, all the samples were analyzed on a D8 system, equipped with an area, 2D detector, and the above-mentioned approach could not be applied. Therefore, another technique has been developed for measuring the crystallinity of samples analyzed on such system. Only a narrow part of the 2D diffraction image is chosen with a single peak at the centre and a neighbour area where the background will be measured.
All samples were measured for calculation of their crystallinity using a narrow range of 21°-25° with a strongest reflection at […]. The background was subtracted as linear, and an empirical correlation coefficient of 2.5 was applied.

[3] = Hygroscopicity of the freeze-dried solid in air
[4] = Stability of the solid salt
Source text: It is extremely hygroscopic and very difficult to weigh for formulation research. In solution, as per the speciation plot (FIG. 5), the pH is above 9.0 and the solution pH must be adjusted to about 7.0 to about 7.4 in a formulation preparation.

Row | Molecule | pH in solution [1] | percent crystallinity [2] | hygroscopicity [3] | stability as a solid [4]
1 | NC(=O)[C@H](N)CCC(=O)N[C@H](Cc1c[nH]c2ccccc12)C(=O)[O-].[K+] [potassium salt of formula I, D-isoglutamyl-D-tryptophan potassium salt (1:1)] | about 7 | – | – | –
2 | Calcium Salt of D-isoglutamyl-D-tryptophan (1:2) [Example 8] | – | 18-20% | – | –
3 | D-isoglutamyl-D-tryptophan calcium salt (2:1) [calcium salt of formula II] | about 7 | ≤ 67% | – | –
4 | D-isoglutamyl-D-tryptophan magnesium salt (2:1) [magnesium salt of formula II] | about 7 | – | – | –
5 | disodium salt of D-isoglutamyl-D-tryptophan | above 9.0 | – | extremely hygroscopic turning into a gel in a matter of minutes in air | less stable chemical entity as a solid
